Data: patent publication US11773109B2, “Composition for hardening soft tissue” (The Catholic University of Korea Industry—Academic …, priority 2016, dated 2023)
Entries after “also recorded” stand apart in the source; their conditions may differ.

Assays:
[1] = system: pancreas of mice; test: Hardness (elastic modulus) of the mouse pancreas after treatment, hardness meter (Venustron); assay type: in vivo
Description: The measurement of the hardness according to the present invention is performed using a hardness meter, and measurement of the hardness of the pancreas is performed by measuring elastic modulus (EM) based on the Hooke's law and the Hertz's contact stress theory. The EM is a measure of the stiffness of an elastic material, and is expressed as the ratio of “the stress along the axis” and “the total strain along the axis within the range of the stress” by the Hooke's law.
(§1) More specifically, three mice were treated with 1 mM of each of the antibiotics shown above, and three mice were treated with phosphate buffered saline (PBS) as a control.
(1) Measurement of Hardness
In order to measure the resistance of the pancreas using a hardness meter, the elastic modulus (EM) of the dissected pancreas was measured using Venustron (Axiom, Koriyama, Japan) based on the Hooke's law and the Hertz's contract stress theory, and the resistance of the pancreas was calculated using the following equation: […]
(F, force; v, Poisson's ratio; t, variant of compression; r, the diameter of a rigid spherical probe that presses an object vertically)

[2] = system: pancreas of mice; test: Tension (suture-holding capacity) of the mouse pancreas after treatment, Newton dynamometer; assay type: in vivo; conditions: for response vs control in vivo at 1000 µM: fold of control, read-out: increase of the tension of the pancreas compared to the control
Description: Specifically, it means a force which occurs in an organ in response to an external force exerted by stretching or pulling action. The measurement of the tension according to the present invention is performed using a dynamometer. More specifically, the tension is determined by measuring suture-holding capacity using a Newton dynamometer. At this time, the tension is calculated by adding the weight of the tissue.
as §1
(2) Measurement of Tensile
The tension of the pancreas was measured using a dynamometer. Specifically, a pancreatic fragment having a size of 1×1×1.5 cm was prepared, and then silk 4-0 suture was passed through the tissue to form a knob, and suture-holding capacity was measured using a Newton dynamometer. At this time, the tension was calculated by adding the weight of the tissue.

[3] = mouse pancreas treated with 1 mM of compound, compared to control (PBS / untreated), result in words
[4] = mouse pancreas treated with 1 mM of compound

SMILES	change in the hardness of the pancreas compared to the control [1, 3]	change in the tension of the pancreas compared to the control [2, 3]	response vs control in vivo at 1000 µM [2, 4] [%]	change in the hardness of the pancreas compared to the control ([1]; mouse, in vivo)	change in the tension of the pancreas compared to the control ([2]; mouse, in vivo)
O=C(O)c1cnc2cc(C(F)(F)F)ccc2c1O [KRP-00009, 4-hydroxy-7-trifluoromethyl-3-quinolinecarboxylic acid]	increased both the hardness and tension	increased both the hardness and tension	≥ 150		
Oc1ccc(Cl)c2cccnc12 [KRP-00002, 5-chloro-8-hydroxyquinoline]	increased both the hardness and tension	increased both the hardness and tension	≥ 150		
O=C(O)c1cnc2cc(Cl)ccc2c1O [KRP-00001, 7-chloro-4-hydroxy-3-quinolinecarboxylic acid]	increased both the hardness and tension	increased both the hardness and tension	≥ 150		
CC1(C)S[C@@H]2[C@H](NC(=O)Cc3ccccc3)C(=O)N2[C@H]1C(=O)OCC1CCCCC1 [KRM-60029, Cyclohexylmethyl (2S,5R,6R)-3,3-dimethyl-7-oxo-6-(2-phenylacetamido)-4-thia-1-azabicyclo[3.2.0]heptane-2-carboxylate]	both the hardness and tension of the pancreas increased	both the hardness and tension of the pancreas increased			
Oc1cccc2cccnc12 [KRM-60042, 8-hydroxyquinoline, reference compound]				significantly increases both the hardness and tension; also recorded: had the effects of increasing the tension and hardness; also recorded: increased both the hardness and tension of the pancreas to high levels; also recorded: excellent effects on increases in both the hardness and tension	significantly increases both the hardness and tension; also recorded: had the effects of increasing the tension and hardness; also recorded: increased both the hardness and tension of the pancreas to high levels; also recorded: excellent effects on increases in both the hardness and tension
CCOCCOCCOC(=O)[C@@H]1N2C(=O)[C@@H](NC(=O)Cc3ccccc3)[C@H]2SC1(C)C [KRM-60080, 2-(2-ethoxyethoxy)ethyl (2S,5R,6R)-3,3-dimethyl-7-oxo-6-(2-phenylacetamido)-4-thia-1-azabicyclo[3.2.0]heptane-2-carboxylate]	increased both the hardness and tension of the pancreas to significant levels	increased both the hardness and tension of the pancreas to significant levels			
CCn1cc(C(=O)O)c(=O)c2cnc(N3CCNCC3)nc21 [KRM-60082, 8-ethyl-5-oxo-2-(piperazin-1-yl)-5,8-dihydropyrido[2,3-d]pyrimidine-6-carboxylic acid]	increased both the hardness and tension of the pancreas to significant levels	increased both the hardness and tension of the pancreas to significant levels			
Oc1ccc2ncccc2c1 [KRP-00013, 6-hydroxyquinoline]	increased both the hardness and tension	increased both the hardness and tension	≥ 150		
CC1(C)S[C@@H]2[C@H](NC(=O)Cc3ccccc3)C(=O)N2[C@H]1C(=O)O.[K+] [KRM-60027, Potassium (2S,5R,6R)-3,3-dimethyl-7-oxo-6-(2-phenylacetamido)-4-thia-1-azabicyclo[3.2.0]heptane-2-carboxylate, reference compound]		significantly increasing the tension; also recorded: had the effects of increasing the tension and hardness; also recorded: increased the tension of the pancreas to a significant level; also recorded: excellent effect on an increase in the tension; also recorded: significant increase in the tension			
CC(C)(C)OC(=O)CCOC(=O)[C@@H]1N2C(=O)[C@@H](NC(=O)Cc3ccccc3)[C@H]2SC1(C)C [KRM-60077, 3-(tert-butoxy)-3-oxopropyl (2S,5R,6R)-3,3-dimethyl-7-oxo-6-(2-phenylacetamido)-4-thia-1-azabicyclo[3.2.0]heptane-2-carboxylate]	increased both the hardness and tension of the pancreas to significant levels	increased both the hardness and tension of the pancreas to significant levels			
CC1(C)S[C@@H]2[C@H](NC(=O)[C@H](N)c3ccccc3)C(=O)N2[C@H]1C(=O)[O-].[Na+] [KRM-60036, Sodium (2S,5R,6R)-6-((R)-2-amino-2-phenylacetamido)-3,3-dimethyl-7-oxo-4-thia-1-azabicyclo[3.2.0]heptane-2-carboxylate, reference compound]	significantly increased the hardness; also recorded: had the effects of increasing the tension and hardness; also recorded: excellent effect on an increase in the hardness	had the effects of increasing the tension and hardness			
CC(=O)N1CCN(c2ccc(OC[C@H]3CO[C@](Cn4ccnc4)(c4ccc(Cl)cc4Cl)O3)cc2)CC1 [KRM-60049, 1-(4-(4-(((2R,4S)-2-((1H-imidazol-1-yl)methyl)-2-(2,4-dichlorophenyl)-1,3-dioxolan-4-yl)methoxy)phenyl)piperazin-1-yl)ethanone, reference compound]	had the effects of increasing the tension and hardness; also recorded: increased both the hardness and tension of the pancreas to high levels	had the effects of increasing the tension and hardness; also recorded: increased both the hardness and tension of the pancreas to high levels			
CC(=O)OCC1=C(C(=O)O)N2C(=O)[C@@H](N)[C@H]2SC1 [KRM-60081, (6R,7R)-3-(acetoxymethyl)-7-amino-8-oxo-5-thia-1-azabicyclo[4.2.0]oct-2-ene-2-carboxylic acid]	increased both the hardness and tension of the pancreas to significant levels	increased both the hardness and tension of the pancreas to significant levels			
O=C(O)c1cc(O)c2cccc(O)c2n1 [KRP-00005, 4,8-dihydroxyquinoline-2-carboxylic acid]	increased both the hardness and tension	increased both the hardness and tension	≥ 150		
Oc1ccnc2ccccc12 [KRP-00012, 4-hydroxyquinoline]	increased both the hardness and tension	increased both the hardness and tension	≥ 150		
Oc1ccc2ccccc2n1 [KRP-00014, 2-hydroxyquinoline]	increased both the hardness and tension	increased both the hardness and tension	≥ 150		
Oc1c(I)cc(Cl)c2cccnc12 [KRP-00003, 5-chloro-8-hydroxy-7-iodoquinoline]	increased both the hardness and tension	increased both the hardness and tension	≥ 150		
COc1cc(Cc2cnc(N)nc2N)cc(OC)c1OC [KRM-60088, 5-(3,4,5-trimethoxybenzyl)pyrimidine-2,4-diamine]	increased both the hardness and tension of the pancreas to significant levels	increased both the hardness and tension of the pancreas to significant levels			
Oc1cc2ccccc2cn1 [KRP-00010, 3-hydroxyisoquinoline]			~240		
